# Measured values as given in patent publication US20230113037A1 (Bayer Aktiengesellschaft, priority 2019, published 2023).
# Where two headings read alike, the source gives them in different places.
# What was measured:
# [1] = biological target: T1, AHR (Mus musculus, UniProt P30561); assay: In vitro assay 3: antagonism in mouse cell line (AHR transactivation, firefly luciferase reporter, kynurenic acid prestimulated); format: cell-based
# T1 sequence (P30561 1-848 P471L/N533S/M589L): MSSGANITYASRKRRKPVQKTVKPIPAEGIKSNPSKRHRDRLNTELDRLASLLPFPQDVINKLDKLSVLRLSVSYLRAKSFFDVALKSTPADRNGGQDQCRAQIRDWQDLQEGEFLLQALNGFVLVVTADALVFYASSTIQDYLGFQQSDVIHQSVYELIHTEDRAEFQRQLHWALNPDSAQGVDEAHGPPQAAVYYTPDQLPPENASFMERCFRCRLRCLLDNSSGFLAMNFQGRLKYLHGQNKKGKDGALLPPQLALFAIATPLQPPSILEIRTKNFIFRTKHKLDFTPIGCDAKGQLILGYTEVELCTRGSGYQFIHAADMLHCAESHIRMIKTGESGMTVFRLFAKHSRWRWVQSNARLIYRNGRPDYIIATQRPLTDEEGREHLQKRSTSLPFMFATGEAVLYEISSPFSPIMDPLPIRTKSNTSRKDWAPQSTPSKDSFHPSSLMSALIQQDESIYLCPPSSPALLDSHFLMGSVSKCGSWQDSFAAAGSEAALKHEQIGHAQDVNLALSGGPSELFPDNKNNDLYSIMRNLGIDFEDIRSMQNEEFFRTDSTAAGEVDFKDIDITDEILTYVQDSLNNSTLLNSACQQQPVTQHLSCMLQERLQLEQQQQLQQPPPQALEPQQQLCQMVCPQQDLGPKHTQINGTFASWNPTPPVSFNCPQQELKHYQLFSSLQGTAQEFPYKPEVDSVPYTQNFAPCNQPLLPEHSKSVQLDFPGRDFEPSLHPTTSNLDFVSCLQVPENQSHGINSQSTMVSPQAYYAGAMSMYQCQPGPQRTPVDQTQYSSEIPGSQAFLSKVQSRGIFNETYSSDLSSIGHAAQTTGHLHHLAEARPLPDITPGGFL
# Method in brief: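 Mouse cells stably carrying a DRE-driven AHR-inducible firefly luciferase reporter were prestimulated with the endogenous agonist kynurenic acid before compound addition. Luciferase read by SteadyGlo; cells without kynurenic acid served as full-inhibition control, with normalization to positive and negative controls. Repeat tests reported as mean or median.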
# [2] = biological target: T2, AHR (Homo sapiens, UniProt P35869); assay: In vitro assay 1: antagonism in human cell line (AHR transactivation, firefly luciferase reporter, kynurenic acid prestimulated); format: cell-based; conditions: AHR Antagonism Human IC50 [M]
# T2 construct: U87 MG glioblastoma cells (ATCC #HTB-14) endogenously expressing AHR; endogenous in cells; host or cells: U87 MG glioblastoma cells (ATCC #HTB-14)
# T2 sequence (P35869 11-848): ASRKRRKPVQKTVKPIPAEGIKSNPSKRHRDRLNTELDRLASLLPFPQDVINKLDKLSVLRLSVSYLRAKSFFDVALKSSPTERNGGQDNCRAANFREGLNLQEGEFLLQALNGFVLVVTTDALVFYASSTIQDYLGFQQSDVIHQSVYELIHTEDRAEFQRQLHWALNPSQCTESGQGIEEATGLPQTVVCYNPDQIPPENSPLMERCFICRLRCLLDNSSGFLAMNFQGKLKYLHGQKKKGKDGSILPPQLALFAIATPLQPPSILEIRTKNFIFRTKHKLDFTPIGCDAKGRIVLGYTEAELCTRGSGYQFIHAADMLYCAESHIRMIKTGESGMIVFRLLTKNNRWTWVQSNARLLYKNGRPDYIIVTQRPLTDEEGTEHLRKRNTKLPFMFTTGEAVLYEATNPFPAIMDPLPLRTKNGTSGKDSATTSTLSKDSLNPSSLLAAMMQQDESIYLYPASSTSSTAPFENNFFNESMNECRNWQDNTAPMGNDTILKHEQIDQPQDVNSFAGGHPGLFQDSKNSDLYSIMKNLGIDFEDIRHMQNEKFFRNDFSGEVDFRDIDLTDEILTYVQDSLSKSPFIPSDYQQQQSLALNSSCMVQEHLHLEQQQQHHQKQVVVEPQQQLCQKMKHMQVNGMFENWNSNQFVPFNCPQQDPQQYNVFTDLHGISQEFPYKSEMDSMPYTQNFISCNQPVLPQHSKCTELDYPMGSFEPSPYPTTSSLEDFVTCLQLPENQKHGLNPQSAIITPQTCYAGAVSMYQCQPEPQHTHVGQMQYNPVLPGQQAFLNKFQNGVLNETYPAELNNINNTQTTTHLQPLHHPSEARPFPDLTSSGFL
# Method in brief: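 U87 MG glioblastoma cells with endogenous AHR, stably carrying a DRE-driven firefly luciferase reporter and constitutive Renilla reporter, prestimulated with kynurenic acid before compound addition. Firefly and Renilla read by dual luciferase; Renilla flags toxicity; normalized to controls (150 μM kynurenic acid + 5 μM staurosporine as full inhibition); repeat values averaged or median.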
# [3] = read-out: AHR Antagonism Mouse IC50, mouse Hepa 1c1c7 cells, 200 μM kynurenic acid, 20 hours
# [4] = mouse Hepa 1c1c7 cells, 200 μM kynurenic acid, 20 hours, read-out: AHR Antagonism Mouse IC50
Structure (SMILES),"IC50 [1, 3]",IC50 [2],"IC50 [1, 4]"
"CS(=O)(=O)c1ccc(-c2nc3c4cccc(Br)c4nc(N[C@H]4CCCCNC4=O)n3n2)cc1 [Example 680, (3S)-3-({7-bromo-2-[4-(methanesulfonyl)phenyl][1,2,4]triazolo[1,5-c]quinazolin-5-yl}amino)azepan-2-one]",35.6 nM,3.93e-08 M,–
"COc1ccc(-c2nc3c4cccc(Br)c4nc(N[C@H]4COCCNC4=O)n3n2)cc1 [Example 681, (6S)-6-{[7-bromo-2-(4-methoxyphenyl)[1,2,4]triazolo[1,5-c]quinazolin-5-yl]amino}-1,4-oxazepan-5-one]",–,1.45e-08 M,13.1 nM
"O=C1NCCCC[C@@H]1Nc1nc2ccccc2c2nc(-c3ccc(Br)cc3OC(F)(F)F)nn12 [Example 682, (3S)-3-({2-[4-bromo-2-(trifluoromethoxy)phenyl][1,2,4]triazolo[1,5-c]quinazolin-5-yl}amino)azepan-2-one]",–,7.43e-08 M,6.82 nM
"CCCNC(=O)[C@H](CC)Nc1nc2c(Br)cccc2c2nc(-c3ccc(Cl)cc3OC(F)F)nn12 [Example 683, (2S)-2-({7-bromo-2-[4-chloro-2-(difluoromethoxy)phenyl][1,2,4]triazolo[1,5-c]quinazolin-5-yl}amino)-N-propylbutanamide]",–,> 5.71e-07 M,16.6 nM
"CCCCNC(=O)[C@@H](C)Nc1nc2c(Br)cccc2c2nc(-c3ccc(Cl)cc3OC(F)F)nn12 [Example 684, N^2-{7-bromo-2-[4-chloro-2-(difluoromethoxy)phenyl][1,2,4]triazolo[1,5-c]quinazolin-5-yl}-N-butyl-D-alaninamide]",–,3.39e-09 M,0.896 nM
"CCCNC(=O)[C@H](CC)Nc1nc2c(Br)cccc2c2nc(-c3ccc(Cl)cc3OC(F)(F)F)nn12 [Example 685, (2S)-2-({7-bromo-2-[4-chloro-2-(trifluoromethoxy)phenyl][1,2,4]triazolo[1,5-c]quinazolin-5-yl}amino)-N-propylbutanamide]",–,> 2e-06 M,142 nM
"CCCCNC(=O)[C@H](C)Nc1nc2c(Br)cccc2c2nc(-c3ccc(Cl)cc3OC(F)F)nn12 [Example 686, N^2-{7-bromo-2-[4-chloro-2-(difluoromethoxy)phenyl][1,2,4]triazolo[1,5-c]quinazolin-5-yl}-N-butyl-L-alaninamide]",–,2.1e-07 M,18.5 nM
"CCCCNC(=O)[C@H](C)Nc1nc2c(Br)cccc2c2nc(-c3ccc(Cl)cc3OC(F)(F)F)nn12 [Example 687, N^2-{7-bromo-2-[4-chloro-2-(trifluoromethoxy)phenyl][1,2,4]triazolo[1,5-c]quinazolin-5-yl}-N-butyl-L-alaninamide]",–,> 2e-06 M,97.8 nM
"CC[C@H](Nc1nc2ccccc2c2nc(-c3cnccn3)nn12)C(N)=O [Example 688, (2S)-2-{[2-(pyrazin-2-yl)[1,2,4]triazolo[1,5-c]quinazolin-5-yl]amino}butanamide]",–,> 2e-05 M,> 20000 nM
"O=C1NCCCC[C@H]1Nc1nc2ccccc2c2nc(-c3cnccn3)nn12 [Example 689, (3R)-3-{[2-(pyrazin-2-yl)[1,2,4]triazolo[1,5-c]quinazolin-5-yl]amino}azepan-2-one]",–,1.6e-07 M,156 nM
"CC[C@H](Nc1nc2ccccc2c2nc(-c3cn(C)nn3)nn12)C(N)=O [Example 690, (2S)-2-{[2-(1-methyl-1H-1,2,3-triazol-4-yl)[1,2,4]triazolo[1,5-c]quinazolin-5-yl]amino}butanamide]",> 20000 nM,> 2e-05 M,–
"CC[C@@H](Nc1nc2ccccc2c2nc(-c3cnccn3)nn12)C(N)=O [Example 691, (2R)-2-{[2-(pyrazin-2-yl)[1,2,4]triazolo[1,5-c]quinazolin-5-yl]amino}butanamide]",–,5.61e-07 M,240 nM
"CCCNC(=O)[C@@H](C)Nc1nc2c(Br)cccc2c2nc(-c3ccc(Cl)cc3OC(F)F)nn12 [Example 692, N^2-{7-bromo-2-[4-chloro-2-(difluoromethoxy)phenyl][1,2,4]triazolo[1,5-c]quinazolin-5-yl}-N-propyl-D-alaninamide]",–,6.79e-10 M,0.308 nM
"CCCNC(=O)[C@@H](C)Nc1nc2c(Br)cccc2c2nc(-c3ccc(Cl)cc3OC(F)(F)F)nn12 [Example 693, N^2-{7-bromo-2-[4-chloro-2-(trifluoromethoxy)phenyl][1,2,4]triazolo[1,5-c]quinazolin-5-yl}-N-propyl-D-alaninamide]",–,7.43e-09 M,2.52 nM
"CC[C@H](Nc1nc2c(Br)cccc2c2nc(-c3cnn(C)c3)nn12)C(N)=O [Example 694, (2S)-2-{[7-bromo-2-(1-methyl-1H-pyrazol-4-yl)[1,2,4]triazolo[1,5-c]quinazolin-5-yl]amino}butanamide]",–,1.55e-07 M,719 nM
"O=C1NCCCC[C@@H]1Nc1nc2ccccc2c2nc(-c3cnccn3)nn12 [Example 695, (3S)-3-{[2-(pyrazin-2-yl)[1,2,4]triazolo[1,5-c]quinazolin-5-yl]amino}azepan-2-one]",–,2.96e-06 M,2190 nM
"CC[C@@H](Nc1nc2c(Br)cccc2c2nc(-c3cnn(C)c3)nn12)C(N)=O [Example 696, (2R)-2-{[7-bromo-2-(1-methyl-1H-pyrazol-4-yl)[1,2,4]triazolo[1,5-c]quinazolin-5-yl]amino}butanamide]",–,3.23e-09 M,8.97 nM
"CC[C@@H](Nc1nc2ccccc2c2nc(-c3ccc(Br)cc3OC(F)(F)F)nn12)C(N)=O [Example 697, (2R)-2-({2-[4-bromo-2-(trifluoromethoxy)phenyl][1,2,4]triazolo[1,5-c]quinazolin-5-yl}amino)butanamide]",–,6.22e-09 M,1.19 nM
"CC[C@H](Nc1nc2c(Br)cccc2c2nc(-c3ccc(Cl)cc3OC(F)F)nn12)C(N)=O [Example 698, (2S)-2-({7-bromo-2-[4-chloro-2-(difluoromethoxy)phenyl][1,2,4]triazolo[1,5-c]quinazolin-5-yl}amino)butanamide]",7.35 nM,4.68e-08 M,–
"COc1ccc(-c2nc3c4cccc(Br)c4nc(N[C@@H]4COCCNC4=O)n3n2)cc1 [Example 699, (6R)-6-{[7-bromo-2-(4-methoxyphenyl)[1,2,4]triazolo[1,5-c]quinazolin-5-yl]amino}-1,4-oxazepan-5-one]",–,9.83e-10 M,1.47 nM
"O=C1NCCNC[C@H]1Nc1nc2c(C(F)(F)F)cccc2c2nc(-c3ccc(Cl)cc3OC(F)(F)F)nn12 [Example 710, (6R)-6-({2-[4-chloro-2-(trifluoromethoxy)phenyl]-7-(trifluoromethyl)[1,2,4]triazolo[1,5-c]quinazolin-5-yl}amino)-1,4-diazepan-5-one]",–,4.84e-09 M,1.8 nM
"CS(=O)(=O)c1ccc(-c2nc3c4ccccc4nc(N[C@@H]4CNCCNC4=O)n3n2)cc1 [Example 714, (6R)-6-({2-[4-(methanesulfonyl)phenyl][1,2,4]triazolo[1,5-c]quinazolin-5-yl}amino)-1,4-diazepan-5-one]",–,1.64e-07 M,134 nM
